pIC50: −log10 of the molar value. One block for each molecule: values may come before it.
Columns and labels:
[1] = biological target: T1, Haem-containing sGC (recombinant soluble guanylate cyclase) (Rattus norvegicus, UniProt P20595); experiment: Stimulation of recombinant soluble guanylate cyclase (sGC) in vitro, haem-containing enzyme; assay type: biochemical
T1 construct: made in house; host or cells: Sf9 insect cells (baculovirus)
T1 sequence (P20595 1-619): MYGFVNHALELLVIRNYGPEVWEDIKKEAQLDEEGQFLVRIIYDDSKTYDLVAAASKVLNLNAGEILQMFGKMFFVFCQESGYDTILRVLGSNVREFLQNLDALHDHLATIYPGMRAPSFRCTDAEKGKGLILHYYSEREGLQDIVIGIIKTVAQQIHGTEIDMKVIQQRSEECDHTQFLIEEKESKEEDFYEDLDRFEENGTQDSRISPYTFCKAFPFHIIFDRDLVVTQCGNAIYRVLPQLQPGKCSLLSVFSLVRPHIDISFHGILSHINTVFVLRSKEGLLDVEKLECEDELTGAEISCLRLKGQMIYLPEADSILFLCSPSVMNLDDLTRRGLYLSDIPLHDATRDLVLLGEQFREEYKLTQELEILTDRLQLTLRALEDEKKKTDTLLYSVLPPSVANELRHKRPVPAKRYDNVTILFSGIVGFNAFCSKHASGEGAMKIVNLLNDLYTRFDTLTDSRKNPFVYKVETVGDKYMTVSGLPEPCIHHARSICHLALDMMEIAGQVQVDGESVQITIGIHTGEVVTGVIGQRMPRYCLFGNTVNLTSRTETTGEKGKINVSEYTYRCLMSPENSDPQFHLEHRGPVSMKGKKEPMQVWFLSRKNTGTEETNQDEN
T1 sequence (P19686 1-690 partner): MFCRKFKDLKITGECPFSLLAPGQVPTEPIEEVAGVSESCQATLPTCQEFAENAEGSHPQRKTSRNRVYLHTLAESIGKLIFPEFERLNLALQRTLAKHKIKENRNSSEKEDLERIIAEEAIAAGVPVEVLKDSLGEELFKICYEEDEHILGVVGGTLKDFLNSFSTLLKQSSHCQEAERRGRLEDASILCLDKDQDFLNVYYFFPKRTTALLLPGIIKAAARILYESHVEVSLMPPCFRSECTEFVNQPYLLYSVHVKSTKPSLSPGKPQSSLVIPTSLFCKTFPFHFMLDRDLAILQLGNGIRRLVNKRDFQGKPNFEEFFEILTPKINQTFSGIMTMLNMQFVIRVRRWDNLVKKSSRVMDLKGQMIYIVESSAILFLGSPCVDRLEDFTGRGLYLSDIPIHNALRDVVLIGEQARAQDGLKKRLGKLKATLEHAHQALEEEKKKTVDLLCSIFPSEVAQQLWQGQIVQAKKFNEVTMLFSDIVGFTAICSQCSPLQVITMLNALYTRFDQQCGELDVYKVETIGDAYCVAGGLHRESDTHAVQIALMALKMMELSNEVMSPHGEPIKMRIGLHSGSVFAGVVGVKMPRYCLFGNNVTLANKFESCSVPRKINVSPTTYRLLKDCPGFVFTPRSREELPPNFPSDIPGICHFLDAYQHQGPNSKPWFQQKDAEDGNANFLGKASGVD
Text: (§1) B-2. Stimulation of Recombinant Soluble Guanylate Cyclase (sGC) In Vitro:
Hoenicka, E. M. Becker, H. Apeler, T. Sirichoke, H. Schroeder, R. Gerzer and J.-P. Stasch, “Purified soluble guanylyl cyclase expressed in a baculovirus/Sf9 system: Stimulation by YC-1, nitric oxide, and carbon oxide”, J. Mol. Med. 77 (1999), 14-23. The haem-free guanylate cyclase is obtained by adding Tween 20 to the sample buffer (0.5% in the final concentration).
(§2) The activation of sGC by a test substance is reported as n-fold stimulation of the basal activity.

saphenous artery rings = experiment: Vasorelaxant effect in vitro (phenylephrine-contracted artery rings); assay type: cell-based, Rabbits; conditions: rabbit saphenous artery rings, contraction induced by phenylephrine
Description: B-1. Vasorelaxant Effect In Vitro:
Rabbits are anaesthetized and sacrificed by intravenous injection of thiopental sodium (about 50 mg/kg) and exsanguinated. The saphenous artery is removed and divided into rings 3 mm wide. The rings are mounted singly on in each case a pair of triangular hooks open at the end and made of 0.3 mm-thick special wire (Remanium®). Each ring is placed under an initial tension in 5 ml organ baths with Krebs-Henseleit solution which is at 37° C., is gassed with 95% O2/5% CO2 and has the following composition: NaCl 119 mM; KCl 4.8 mM; CaCl2×2H2O 1 mM; MgSO4×7H2O 1.4 mM; KH2PO4 1.2 mM; NaHCO3 25 mM; glucose 10 mM; bovine serum albumin 0.001%. The force of contraction is detected with Statham UC2 cells, amplified and digitized via A/D converters (DAS-1802 HC, Keithley Instruments, Munich) and recorded in parallel on chart recorders. Contractions are induced by addition of phenylephrine.
After several (generally 4) control cycles, the substance to be investigated is added in each further run in increasing dosage, and the height of the contraction achieved under the influence of the test substance is compared with the height of the contraction reached in the last preceding run. The concentration necessary to reduce the contraction reached in the preceding control by 50% is calculated from this (IC50). The standard application volume is 5 μl. The proportion of DMSO in the bath solution corresponds to 0.1%.

[2] = biological target: T2, Haem-free sGC (recombinant soluble guanylate cyclase) (Rattus norvegicus, UniProt P20595); experiment: Stimulation of recombinant soluble guanylate cyclase (sGC) in vitro, haem-free enzyme; assay type: biochemical
T2 construct: made in house; host or cells: Sf9 insect cells (baculovirus)
T2 sequence (P20595 1-619): T1 sequence (P20595 1-619)
T2 sequence (P19686 1-690 partner): T1 sequence (P19686 1-690 partner)
Description: as §1
Investigations on the stimulation of recombinant soluble guanylate cyclase (sGC) by the compounds according to the invention with and without sodium nitroprusside, and with and without the haem-dependent sGC inhibitor 1H-1,2,4-oxadiazole-(4,3a)-quinoxalin-1-one (ODQ) are carried out by the method described in detail in the following reference: M. Hoenicka, E. M. Becker, H. Apeler, T. Sirichoke, H. Schroeder, R. Gerzer and J.-P. Stasch, “Purified soluble guanylyl cyclase expressed in a baculovirus/Sf9 system: Stimulation by YC-1, nitric oxide, and […]”, J. Mol. Med. 77 (1999), 14-23. The haem-free guanylate cyclase is obtained by adding Tween 20 to the sample buffer (0.5% in the final concentration).
as §2

conscious SH rats = experiment: Radiotelemetric measurement of blood pressure and heart rate on conscious SH rats; assay type: in vivo, spontaneously hypertensive rats (SH rats); conditions: oral administration of 0.3 mg/kg
Text: B-3. Radiotelemetric Measurement of Blood Pressure and Heart Rate on Conscious SH Rats
A commercially available telemetry system from Data Sciences International DSI, USA, is employed for the measurements on conscious SH rats described below.
The system consists of 3 main components: (1) implantable transmitter, (2) receiver which is linked via a multiplexer to a (3) data acquisition computer. The telemetry system makes it possible to record continuously the blood pressure and heart rate on conscious animals in their usual habitat.
The investigations are carried out on adult female spontaneously hypertensive rats (SH rats) with a body weight of >200 g. After transmitter implantation, the experimental animals are housed singly in type 3 Makrolon cages. They have free access to standard feed and water. […]
The telemetry measuring unit is configured for 24 animals. Each experiment is recorded under an experiment number.
Each of the instrumented rats living in the system is assigned a separate receiving antenna (1010 Receiver, DSI). […] The emitted signals can be detected online by a data acquisition system (Dataquest™ A.R.T. for Windows, DSI) and be appropriately processed. […]
In the standard procedure, the following are measured for 10-second periods in each case: (1) systolic blood pressure (SBP), (2) diastolic blood pressure (DBP), (3) mean arterial pressure (MAP) and (4) heart rate (HR). […]

Stimulation (n-fold) Haem-containing sGC Basal ([1]; 0.001 μM Example 5): 3.5 n-fold
Stimulation (n-fold) Haem-containing sGC +0.1 μM DEA/NO ([1]; 0.001 μM Example 5 +0.1 μM DEA/NO): 88.3 n-fold
Stimulation (n-fold) Haem-containing sGC +10 μM ODQ ([1]; 0.001 μM Example 5 +10 μM ODQ): 40.3 n-fold
Stimulation (n-fold) Haem-containing sGC Basal ([1]; 0.01 μM Example 5): 17.2 n-fold
Stimulation (n-fold) Haem-containing sGC +0.1 μM DEA/NO ([1]; 0.01 μM Example 5 +0.1 μM DEA/NO): 102.9 n-fold
Stimulation (n-fold) Haem-containing sGC +10 μM ODQ ([1]; 0.01 μM Example 5 +10 μM ODQ): 83.0 n-fold
Stimulation (n-fold) Haem-containing sGC Basal ([1]; 0.1 μM Example 5): 35.1 n-fold
Stimulation (n-fold) Haem-containing sGC +0.1 μM DEA/NO ([1]; 0.1 μM Example 5 +0.1 μM DEA/NO): 123.1 n-fold
Stimulation (n-fold) Haem-containing sGC +10 μM ODQ ([1]; 0.1 μM Example 5 +10 μM ODQ): 149.5 n-fold
Stimulation (n-fold) Haem-containing sGC Basal ([1]; 1 μM Example 5): 44.2 n-fold
Stimulation (n-fold) Haem-containing sGC +0.1 μM DEA/NO ([1]; 1 μM Example 5 +0.1 μM DEA/NO): 124.1 n-fold
Stimulation (n-fold) Haem-containing sGC +10 μM ODQ ([1]; 1 μM Example 5 +10 μM ODQ): 162.1 n-fold
Stimulation (n-fold) Haem-containing sGC Basal ([1]; 10 μM Example 5): 59.5 n-fold
Stimulation (n-fold) Haem-containing sGC +0.1 μM DEA/NO ([1]; 10 μM Example 5 +0.1 μM DEA/NO): 152.0 n-fold
Stimulation (n-fold) Haem-containing sGC +10 μM ODQ ([1]; 10 μM Example 5 +10 μM ODQ): 171.2 n-fold
Synergy of combination with NO donor DEA/NO on sGC stimulation ([1]; combination with DEA/NO): no synergistic effect
pIC50 (saphenous artery rings): 8.31
Stimulation (n-fold) Haem-free sGC Basal ([2]; 0.001 μM Example 5): 19.2 n-fold
Stimulation (n-fold) Haem-free sGC +10 μM ODQ ([2]; 0.001 μM Example 5 +10 μM ODQ): 18.4 n-fold
Stimulation (n-fold) Haem-free sGC Basal ([2]; 0.01 μM Example 5): 105.8 n-fold
Stimulation (n-fold) Haem-free sGC +10 μM ODQ ([2]; 0.01 μM Example 5 +10 μM ODQ): 100.5 n-fold
Stimulation (n-fold) Haem-free sGC Basal ([2]; 0.1 μM Example 5): 185.3 n-fold
Stimulation (n-fold) Haem-free sGC +10 μM ODQ ([2]; 0.1 μM Example 5 +10 μM ODQ): 170.4 n-fold
Stimulation (n-fold) Haem-free sGC Basal ([2]; 1 μM Example 5): 201.2 n-fold
Stimulation (n-fold) Haem-free sGC +10 μM ODQ ([2]; 1 μM Example 5 +10 μM ODQ): 189.2 n-fold
Stimulation (n-fold) Haem-free sGC Basal ([2]; 10 μM Example 5): 203.1 n-fold
Stimulation (n-fold) Haem-free sGC +10 μM ODQ ([2]; 10 μM Example 5 +10 μM ODQ): 180.7 n-fold
SMILES: O=C(O)c1ccc(CCC(/C=C/c2ccccc2OCCCCCc2ccccc2)Cc2ccc(C(=O)O)cc2)cc1 (racemic) [Example 5, 4-((4E)-3-(4-Carboxybenzyl)-5-{2-[(5-phenylpentyl)oxy]phenyl}pent-4-en-1-yl)benzoic Acid]

pIC50 (saphenous artery rings; Oryctolagus cuniculus): 9.15
SMILES: CCCCCCOc1ccccc1/C=C/C(CCc1ccc(C(=O)O)cc1)Cc1ccc(C(=O)O)cc1 (racemic) [Example 20, 4-{(4E)-3-(4-Carboxybenzyl)-5-[2-(hexyloxy)phenyl]pent-4-en-1-yl}benzoic Acid]
Period of blood pressure reduction (conscious SH rats): 11 h
Reduction in blood pressure (conscious SH rats): marked reduction in blood pressure
